In paper PMC7156724, “Potent BRD4 inhibitor suppresses cancer cell-macrophage interaction” (Nature Communications, 2020):
Where “and” joins values, the source holds several entries; their conditions need not be identical. Equal values may be shown once.

How the values were obtained:
[1] = tested on: A2780 ovarian tumors; assay: A2780 ovarian subcutaneous tumor growth; type: in vivo, mouse; details: for Tumor volume: Fig.3b a2780, 3mg/kg p.o. QD x 15D, n=5, individual animals, in mm³ (unit assumed)
Excerpt: PO, oral administration; QD, once daily; BID, twice daily. b–d Tumor growth curves for A2780 ovarian tumor (n = 5) (b), TMD8 large B cell lymphoma (n = 6) (c), and B16F10 melanoma (n = 5) (d) bearing mice treated with the indicated compounds once daily for 11-21 days. e, f Tumor growth curves for A375 melanoma (n = 6) (e), and patient-derived xenograft (PDX) of melanoma (n = 5) (f) bearing mice treated with the indicated compounds once daily (5 days on, 2 days off) for 21 days. For d–f, NHWD-870 used is NHWD-870-HCl synthesized using Suzuki coupling route. Data are presented as mean ± SEM in (a, b, d, f) and mean + SEM in (c, e). p values were calculated using two-tailed, unpaired t tests. *p < 0.05; **p < 0.01; ***p < 0.001. Source data are provided as a Source Data file.
4–6 weeks old female BALB/c nude mice were used for most experiments, with the exception of 6–8 weeks old female C57BL/6 mice were used for B16F10 experiments, and 6–8 weeks old male BALB/c nude mice and SD rats were used for pharmacokinetic experiments. All animals were purchased from Shanghai SIPPR-Bk Lab Animal Co., Ltd. All animals were housed under a regimen of 12 h light/12 h dark cycles and specific pathogen-free conditions. 5×10^6 NCI-H526, ES-2, MDA-MB231, A2780, A375, B16F10, and TMD-8 cells (0.1 ml) were injected subcutaneously into female nude mice. The melanoma patient-derived xenograft model was derived from a human melanoma sample (BRAF, NARS and NF1 wild type, and p53 mutant) removed from a patient in Xiangya Hospital. Surgically removed tumor fragments were implanted subcutaneously into female NSG mice. When the tumors grew to ~1000 mm^3, they were harvested and cryopreserved or immediately re-implanted for expansion or experiments. Mouse body weight and tumor sizes were measured every 3 days. Once the tumors grew to 150–200 mm^3, mice were treated with the compounds as described in the Figures. 1 × 10^6 A2780 cells (1 ml) were injected into the abdominal cavity of nude mice. Ascitic volume and tumor weight were measured by an electronic balance. All the procedures were evaluated and approved by the Institutional Animal Care and Use Committee of Central South University and Yale University.

[2] = Metabolic stability assay, human liver microsomes; details: for Remaining in Human liver microsomes (Sup Fig.6e): in % (unit assumed)
Protocol: 7. Metabolic stability assay. The metabolic profile of NHWD-870 was determined using mouse, rat, dog, monkey, and human liver microsomes using the protocols […]
No. Compound ID Exat Mass Stock Conc.
1) 100 mM potassium phosphate buffer, PH7.4; 2) 10mM MgCI2
1) Intermediate solution: Dilute 5 μL of compound or control from stock solution (10 mM) with 45 uL DMSO,then mixed with 450 μL 1:1 Methanol/Water (Conc.: 10 0 […]
2) Working solution: Dilute 50 μL from intermediate solution with 450 μL 100 mM potassium phosphate buffer (Conc.: 10 μM, 4.5%MeOH)
(3) NADPH regenerating system (final Isocitric dehydrogenase conc.= 1 unit/mL at […]
1) β-Nicotinamide adenine dinucleotide phosphate, Vendor: sigma Cat. No. N0505
2) Isocitric acid, Vendor: Sigma Cat. No. I1252
3) Isocitric dehydrogenase, Vendor: sigma Cat. No. I2002
(4) Liver microsome solution preparation (final concentration o f 0.5 mg protein/mL) […]
Cold ACN including 100 ng/mL Tolbutamide and 100 ng/mL Labetalol as internal […]
1) Add 10 μL compound or control working solution/well to all plates (T0, T5, T10, T20, T30, T60, NCF60) except matrix blank.
2) Dispense 680 μL/well microsome solution to 96-well plate as reserv oir according to […]
plate map. Then add 80 μL/well to every plate by Apricot, incubate the mixture of microsome solution and compound at 37℃ for about 10 min.
3) Add 10 μL 100 mM potassium phosphate buffer/well to NCF60, incubate at 37℃, […]
4) After pre-warming, dispense 90 μL/well NADPH regenerating system to 96-well plate as reservoir according to the plate map. Then add 10 μL/well to every plate by Apricot to start reaction.
5) Incubate at 37℃, start timer 2.
6) Add 300 (μL/well) stop solution (cold in 4℃, including 100 ng/mL Tolbutamide and 100 ng/mL Labetalol) to terminate the reaction.
7) The sampling plates are shaked for approx 10 min.
8) Samples are centrifuged at 4000 rpm for 20 min under 4℃.
9) While centrifuging, load 8×new 96-well plate with 300 μL HPLC water, then transfer 100 μL supernatant, mixed for LC/MS/MS.
Use equation of first order kinetics to calculate t1/2 and Clin t(mic): […]
Equation of first order kinetics: […]

[3] = human, liver microsomes, pH 7.4

Cc1nnn(C)c1-c1cnc2c3c4cnn(C)c4ccc3n([C@H](c3ccccc3)C3CCOCC3)c2c1 [NHWD-870]
effect on tumor growth ([1]; A2780 ovarian tumors, oral once daily): strong tumor regression activity
Tumor volume ([1]; day 3): 437 and 185 and 30 and 119 and 617
Tumor volume ([1]; day 6): 183 and 151 and 27 and 79 and 405
Tumor volume ([1]; day 9): 150 and 191 and 22 and 66 and 371
Tumor volume ([1]; day 12): 110 and 138 and 20 and 56 and 270
Tumor volume ([1]; day 15): 91 and 72 and 18 and 40 and 78
Remaining (T=60min) ([2]; human liver microsomes): 23.6%
Remaining (*NCF=60min) ([2]; human liver microsomes, no cofactor): 74.4%
CLint scaled at 1 µM [2, 3]: 45.3 mL/min/kg
half-life at 1 µM [2, 3]: 27.6 min
microsomal CLint at 1 µM ([2]; human, microsomes, pH 7.4): 50.3 µL/min/mg
half-life at 1 µM ([2]; mouse, rat, dog, monkey, human, liver microsomes, pH 7.4): 21 to 39 min
Remaining in Human liver microsomes (Sup Fig.6e) ([2]; time 0): 100
Remaining in Human liver microsomes (Sup Fig.6e) ([2]; time 5): 96.274
Remaining in Human liver microsomes (Sup Fig.6e) ([2]; time 10): 76.421
Remaining in Human liver microsomes (Sup Fig.6e) ([2]; time 20): 52.125
Remaining in Human liver microsomes (Sup Fig.6e) ([2]; time 30): 39.904
Remaining in Human liver microsomes (Sup Fig.6e) ([2]; time 60): 23.628
